# Assay results reported in patent publication US6699834B1, “Method for treating cancer” (University of Maryland Biotechnology Institute, priority 1997, dated 2004).
# Experiments:
# [1] = tested on: KS Y-1 and KS-SLK cells; test: Kaposi's Sarcoma clonogenic assay in cultured cells; type: cell-based, human
# Summary of the method: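 KS Y-1 or KS-SLK cells, 5×10^4 seeded in 0.8% methylcellulose, grown 10 days with or without hCG, β-hCG or β-hCG peptide preparations; well-formed colonies counted in triplicate wells.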
# [2] = tested on: Kaposi's Sarcoma induced in mice; test: Kaposi's Sarcoma tumors induced in mice by KS Y-1 cells; type: in vivo
# Protocol: The effects of the peptides on KS tumor cells were also evaluated in vivo in the KS mouse model. To induce KS tumors in the mice, 1×10^6/ml KS Y-1 cells in 50 μl PBS or saline were injected subcutaneously into immunodeficient mice (beige-XID-BNX mice). […] Methods for detection of apoptosis (from tissue biopsies) were used, as described in Lunardi-Iskandar et al.(1995, Nature 375:64-68). Briefly, the samples were stained in situ for the presence of cells with DNA fragmentation. Tissue slides from formalin-fixed tumors were treated with terminal deoxynucleotide transferase for extension of DNA ends (hydroxyl 3′) and incorporation of digoxigenin-11-dUTP according to the manufacturer's instructions (Oncor, Gaithersburg, Md.). Anti-digoxigenin antibody conjugated with the enzyme peroxidase allowed detection of apoptotic cells, which stain brown, whereas viable cells stain blue.
# Certain fractions were tested for activity in reducing Kaposi's Sarcoma lesions in the Kaposi's Sarcoma mouse model as described herein. In this assay, starting one week after injection of the KS Y-1 cells to induce Kaposi's sarcoma formation, the mice were injected subcutaneously with 100 IU hCG. […] After one week of the week of treatment with the hCG fractions, the KS lesions were examined for cell apoptosis and regression as described herein.
# Certain fractions of the APL™ hCG and early pregnancy urine were assayed for their ability to elicit apoptosis in Kaposi's Sarcoma lesions induced by injection of KS Y-1 cells in mice (n=3 mice for each treatment). The mice were administered 100 μl subcutaneously of the particular fraction each day for one week.
# [3] = tested on: HIV-1
# [4] = tested on: lung cancer cells; test: Clonogenic assay, lung cancer cells; type: cell-based; conditions: compared to PBS alone
# Protocol: The hCG preparations, fractions of the early pregnancy urine and hCG APL™ SUPERDEX™ 200 fractionations (described herein), and certain β-hCG peptides were tested on prostate, lung, breast, and kidney cancer cells in vitro, and on prostate tumors in nude mice. […] The preparations fractions and peptides were also assayed using a clonogenic assay in which cells were seeded in methylcellulose in the presence or absence of test substance and then colonies were counted after a certain period of time. Cells were also examined for apoptosis by confocal microscopy.
# [5] = tested on: hematopoietic progenitor cells; test: Hematopoietic progenitor clonogenic assays (CFU-GEMM, BFU-e, CFU-GM); type: cell-based, human
# Summary of the method: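 Normal bone marrow and cord blood progenitors (2×10^5 cells/ml) grown in methylcellulose with hCG preparations at 200 IU/ml or α/β-subunits and peptides at 100 μg/ml. Colonies (aggregates >50 cells) counted after 10 days of culture.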
# [6] = tested on: HIV-1 transgenic mice; test: Survival, growth and weight of HIV-1 transgenic mouse pups; type: in vivo; conditions: HIV-1 transgenic pups
# Protocol: (§1) The HIV-1 transgenic mice used for this study contain 7.4 kb of foreign DNA, including 5.1 kb of the HIV-1 proviral genome deleted in the gag and pol genes and 2.3 kb of vector (Dickie et al., 1991, Virology 185:109-119). […] In addition, these mice develop severe hyperkeratotic skin lesions with marked expression of gp 120 and nef genes (Kopp et al., 1993, AIDS Res. Hum. Retroviruses 9:267-275; Vasli et al., 1994, AIDS Res. Hum. Retroviruses 10:1241-1250).
# (§2) Finally, certain fractions were tested for their ability to increase survival, promote weight gain and reduce HIV-1 gene expression in HIV-1 transgenic mice as described herein.
# HIV-I transgenic pups administered hCG and hCG-related preparations for the first 5 days after birth through the mothers milk were monitored for survival at 10 days after birth.
# [7] = tested on: HIV RNA and protein expression; test: HIV RNA and protein expression in HIV-1 transgenic mice; type: in vivo
# Source text: as §1
# Heterozygous transgenic mothers were treated with the hCG preparation subcutaneously twice weekly. Pups received hCG via the mother's milk.
# Gene expression was assayed in total RNA extracted from the skin of Tg26 mice with RNAzol. One microgram of RNA was reverse transcribed into cDNA using random hexamer primers and […] reverse transcriptase (Life Technologies, MD) in a final volume of 30 μl. One tenth of the cDNA reactions were used for PCR amplification of various HIV gene sequences (env, tat, rev, nef and vif). In addition, glyceraldehyde 3-phosphate dehydrogenase (GAPHD) mRNA was amplified for each sample for normalization. Following 25 cycles of amplification, 10% of the PCR product was resolved by electrophoresis through 2% agarose gels and processed for Southern hybridization using FITC-labeled oligonucleotide probes complimentary to internal sequences of the amplicons. Detection was performed by chemiluminescence (Amersham) and relative mRNA levels determined by densitometry after normalization with GAPDH mRNA levels.
# as §2
substance,measurement,setting,value
3. 45-57: β-hCG amino acids 45-57 (SEQ ID NO:6) (LQGVLPALPQVVC),inhibition of KS cell growth in clonogenic assays (in words),[1]; KS Y-1 and KS SLK,strongest anti-tumor effects
same,KS in vitro,[1]; inhibition of Kaposi's Sarcoma cell growth in vitro in cultured cells,++ (“++” represents greater than 40% effect)
same,KS in vivo,[2]; inhibition of Kaposi's Sarcoma induced in mice,++ (“++” represents greater than 40% effect)
same,effect on KS tumors in mice (in words),"[2]; mouse, in vivo",extensive cell death
same,inhibition of HIV-1 infection/replication in vitro (in words),[3],inhibit HIV-1 replication in vitro
same,HIV in vitro Inhibition,[3]; inhibition of HIV-1 replication in vitro (HIV-1 strains and HIV-1 primary isolates),++ (“++” represents greater than 40% effect)
same,colony formation,[4],inhibited colony formation
same,promotion of hematopoiesis (in words),[5],directly promoted
same,Pro-hematopoiesis in vitro Enhancement,"[5]; relative increase of hematopoietic colony cell number, hCG preparations 200 IU/ml, subunits and peptides 100 μg/ml",++ (“++” represents greater than 40% effect)
same,weight gain / growth retardation and cachexia,[6],higher weight gain than untreated mice
same,inhibition of HIV RNA and protein expression,[7]; inhibition of HIV RNA and protein expression in HIV-1 transgenic mice,++ (“++” represents greater than 40% effect)
same,HIV-1 gene / protein expression in transgenic mice (in words),[7]; pups dosed via mother's milk,considerable inhibition
